Legend:
[1] = system: antibodies in sera from SARS patients (sera 1a, 1b, 2, 6, 37, 62, London, SARS-yellow, SARS-green); assay type: binding, human; design: Binding of serum 6 to linear peptides of protein X1 of SARS-CoV Urbani / Binding of serum 37 to linear peptides of protein X1 of SARS-CoV Urbani / Binding of serum 6 to looped/cyclic peptide (PEPSCAN-ELISA) / Binding of serum 37 to looped/cyclic peptide (PEPSCAN-ELISA) / Binding of serum 37 to looped/cyclic peptides of protein X1 of SARS-CoV Urbani / Binding of serum 6 to linear peptides of protein X2 / Binding of serum 37 to linear peptides of protein X2 / Binding of serum 37 to looped/cyclic peptides of protein X2 of SARS-CoV Urbani / Binding of serum 6 to linear peptides of protein M of SARS-CoV Urbani / Binding of serum 37 to linear peptides of protein M of SARS-CoV Urbani / Binding of serum 6 to looped/cyclic peptides of protein M of SARS-CoV Urbani / Binding of serum 37 to looped/cyclic peptides of protein M of SARS-CoV Urbani / Binding of serum 6 to linear peptides of protein X3 of SARS-CoV Urbani / Binding of serum 37 to linear peptides of protein X3 of SARS-CoV Urbani / Binding of serum 37 to looped/cyclic peptides of protein X3 of SARS-CoV Urbani / Binding of serum 6 to linear peptides of protein X4 of SARS-CoV Urbani / Binding of serum 37 to linear peptides of protein X4 of SARS-CoV Urbani / Binding of serum 37 to looped/cyclic peptides of protein X4 of SARS-CoV Urbani / Binding of serum 6 to linear peptides of protein X5 of SARS-CoV Urbani / Binding of serum 37 to linear peptides of protein X5 of SARS-CoV Urbani / Binding of serum 37 to looped/cyclic peptides of protein X5 of SARS-CoV Urbani / Binding of serum 6 to linear peptides of protein N of SARS-CoV Urbani / Binding of serum 37 to linear peptides of protein N of SARS-CoV Urbani / Binding of serum 6 to linear peptide (PEPSCAN-ELISA) / Binding of serum 1a to looped/cyclic peptides of protein N of SARS-CoV Urbani / Binding of serum 1b to looped/cyclic peptides of protein N of SARS-CoV Urbani / Binding of serum 2 to looped/cyclic peptides of protein N of SARS-CoV Urbani / Binding of serum 6 to looped/cyclic peptides of protein N of SARS-CoV Urbani / Binding of serum 37 to looped/cyclic peptides of protein N of SARS-CoV Urbani / Binding of serum 62 to looped/cyclic peptides of protein N of SARS-CoV Urbani / Binding of serum London to looped/cyclic peptides of protein N of SARS-CoV Urbani / Binding of serum SARS-green to looped/cyclic peptides of protein N of SARS-CoV Urbani: unit not given here
[2] = system: rabbit serum obtained by immunizing a rabbit with the SARS-CoV strain Frankfurt 1; assay type: binding; design: Binding of a rabbit serum to linear peptides / Binding of a rabbit serum to looped peptides / Rabbit serum linear peptides / Rabbit serum looped peptides / Binding of a rabbit serum to linear peptides of protein N of SARS-CoV Urbani (Rabbit serum linear peptides) / Binding of a rabbit serum to looped/cyclic peptides of protein N of SARS-CoV Urbani (Rabbit serum looped peptides): unit not given here
[3] = system: control sera (pooled serum of ten healthy LUMC hospital workers; commercial negative donor pooled serum from the Dutch bloodbank); assay type: binding, human; design: Binding of Control serum LUMC to linear peptides / Binding of Control serum Blood-bank to linear peptides / Binding of Control serum LUMC to looped peptides / Binding of Control Serum Blood-Bank to Looped peptides / Binding of Control serum LUMC to linear peptides of the protein M of SARS-CoV Urbani / Binding of Control serum Blood-bank to linear peptides of the protein M of SARS-CoV Urbani / Binding of Control serum LUMC to looped peptides of the protein M of SARS-CoV Urbani / Binding of Control Serum Blood-Bank to Looped peptides of the protein M of SARS-CoV Urbani: unit not given here

In the case of VVVHGYFTEVYYQLE, the “Binding of serum 1a to linear peptides of protein X1 of SARS-CoV Urbani” value [1] is reported as 0.8, the “Binding of serum 1a to looped/cyclic peptides of protein X1 of SARS-CoV Urbani” value [1] is reported as 0.6 and the “Binding of serum 1b to linear peptides of protein X1 of SARS-CoV Urbani” value [1] is reported as 0.6. The “Binding of serum 1b to looped/cyclic peptides of protein X1 of SARS-CoV Urbani” value [1] was 0.5, the “Binding of serum 2 to linear peptides of protein X1 of SARS-CoV Urbani” value [1] was 0.6 and the “Binding of serum 2 to looped/cyclic peptides of protein X1 of SARS-CoV Urbani” value [1] was 0.5. The “Binding of serum 6 to linear peptides of protein X1 of SARS-CoV Urbani” value [1] was 0.4, the “Binding of serum 6 to looped/cyclic peptides of protein X1 of SARS-CoV Urbani” value [1] was 0.3 and the “Binding of serum 37 to linear peptides of protein X1 of SARS-CoV Urbani” value [1] was 0.6. The “Binding of serum 37 to looped/cyclic peptides of protein X1 of SARS-CoV Urbani” value [1] was 0.5, the “Binding of serum 62 to linear peptides of protein X1 of SARS-CoV Urbani” value [1] was 0.4 and the “Binding of serum 62 to looped/cyclic peptides of protein X1 of SARS-CoV Urbani” value [1] was 0.5. The “Binding of serum London to linear peptides of protein X1 of SARS-CoV Urbani” value [1] was 0.2, the “Binding of serum London to looped/cyclic peptides of protein X1 of SARS-CoV Urbani” value [1] was 0.2 and the “Binding of serum SARS-green to linear peptides of protein X1 of SARS-CoV Urbani” value [1] was 0.3. The “Binding of serum SARS-green to looped/cyclic peptides of protein X1 of SARS-CoV Urbani” value [1] was 0.3, the “Binding of serum SARS-yellow to linear peptides of protein X1 of SARS-CoV Urbani” value [1] was 0.3 and the “Binding of serum SARS-yellow to looped/cyclic peptides of protein X1 of SARS-CoV Urbani” value [1] was 0.4. The “Binding of a rabbit serum to linear peptides” value [2] was 0.1, the “Binding of a rabbit serum to looped peptides” value [2] was 0.6 and the “Binding of Control Serum Blood-Bank to Looped peptides” value [3] was 0.4. For the same sequence, the “Binding of Control serum Blood-bank to linear peptides” value [3] was 0.5, the “Binding of Control serum LUMC to linear peptides” value [3] was 1.1 and the “Binding of Control serum LUMC to looped peptides” value [3] was 0.7.

VYHITVSQIQLSLLK was tested, and the “Binding of serum 1a to linear peptides of protein X2” value [1] was 0.6, the “Binding of serum 1a to looped/cyclic peptides of protein X2 of SARS-CoV Urbani” value [1] was 0.5 and the “Binding of serum 1b to linear peptides of protein X2” value [1] was 0.5. The “Binding of serum 1b to looped/cyclic peptides of protein X2 of SARS-CoV Urbani” value [1] was 0.2, the “Binding of serum 2 to linear peptides of protein X2” value [1] was 0.5 and the “Binding of serum 2 to looped/cyclic peptides of protein X2 of SARS-CoV Urbani” value [1] was 0.2. The “Binding of serum 6 to linear peptides of protein X2” value [1] was 0.5, the “Binding of serum 6 to looped/cyclic peptides of protein X2 of SARS-CoV Urbani” value [1] was 0.6 and the “Binding of serum 37 to linear peptides of protein X2” value [1] was 0.7. The “Binding of serum 37 to looped/cyclic peptides of protein X2 of SARS-CoV Urbani” value [1] was 0.4, the “Binding of serum 62 to linear peptides of protein X2” value [1] was 0.4 and the “Binding of serum 62 to looped/cyclic peptides of protein X2 of SARS-CoV Urbani” value [1] was 0.6. The “Binding of serum London to linear peptides of protein X2” value [1] was 0.4, the “Binding of serum London to looped/cyclic peptides of protein X2 of SARS-CoV Urbani” value [1] was 1.3 and the “Binding of serum SARS-green to linear peptides of protein X2” value [1] was 0.2. For the same sequence, the “Binding of serum SARS-green to looped/cyclic peptides of protein X2 of SARS-CoV Urbani” value [1] was 0.3, the “Binding of serum SARS-yellow to linear peptides of protein X2” value [1] was 0.7 and the “Binding of serum SARS-yellow to looped/cyclic peptides of protein X2 of SARS-CoV Urbani” value [1] was 0.3. For the same sequence, the “Binding of a rabbit serum to linear peptides” value [2] was 0.9, the “Binding of a rabbit serum to looped peptides” value [2] was 0.4 and the “Binding of Control Serum Blood-Bank to Looped peptides” value [3] was 0.6. For the same sequence, the “Binding of Control serum Blood-bank to linear peptides” value [3] was 0.5, the “Binding of Control serum LUMC to linear peptides” value [3] was 0.7 and the “Binding of Control serum LUMC to looped peptides” value [3] was 0.4.

VYRINWVTGGIAIAM was tested, and the “Binding of serum 1a to linear peptides of protein M of SARS-CoV Urbani” value [1] was 0.9, the “Binding of serum 1a to looped/cyclic peptides of protein M of SARS-CoV Urbani” value [1] was 0.7 and the “Binding of serum 1b to linear peptides of protein M of SARS-CoV Urbani” value [1] was 0.8. The “Binding of serum 1b to looped/cyclic peptides of protein M of SARS-CoV Urbani” value [1] was 0.4, the “Binding of serum 2 to linear peptides of protein M of SARS-CoV Urbani” value [1] was 0.8 and the “Binding of serum 2 to looped/cyclic peptides of protein M of SARS-CoV Urbani” value [1] was 0.6. For the same sequence, the “Binding of serum 6 to linear peptides of protein M of SARS-CoV Urbani” value [1] was 1.0, the “Binding of serum 6 to looped/cyclic peptides of protein M of SARS-CoV Urbani” value [1] was 0.5 and the “Binding of serum 37 to linear peptides of protein M of SARS-CoV Urbani” value [1] was 0.6. The “Binding of serum 37 to looped/cyclic peptides of protein M of SARS-CoV Urbani” value [1] was 0.7, the “Binding of serum 62 to linear peptides of protein M of SARS-CoV Urbani” value [1] was 0.6 and the “Binding of serum 62 to looped/cyclic peptides of protein M of SARS-CoV Urbani” value [1] was 1.1. For the same sequence, the “Binding of serum London to linear peptides of protein M of SARS-CoV Urbani” value [1] was 0.6, the “Binding of serum London to looped/cyclic peptides of protein M of SARS-CoV Urbani” value [1] was 0.2 and the “Binding of serum SARS-green to linear peptides of protein M of SARS-CoV Urbani” value [1] was 0.7. For the same sequence, the “Binding of serum SARS-green to looped/cyclic peptides of protein M of SARS-CoV Urbani” value [1] was 0.3, the “Binding of serum SARS-yellow to linear peptides of protein M of SARS-CoV Urbani” value [1] was 0.3 and the “Binding of serum SARS-yellow to looped/cyclic peptides of protein M of SARS-CoV Urbani” value [1] was 0.8. For the same sequence, the “Rabbit serum linear peptides” value [2] was 0.3, the “Rabbit serum looped peptides” value [2] was 0.4 and the “Binding of Control Serum Blood-Bank to Looped peptides of the protein M of SARS-CoV Urbani” value [3] was 0.7. For the same sequence, the “Binding of Control serum Blood-bank to linear peptides of the protein M of SARS-CoV Urbani” value [3] was 0.7, the “Binding of Control serum LUMC to linear peptides of the protein M of SARS-CoV Urbani” value [3] was 1.0 and the “Binding of Control serum LUMC to looped peptides of the protein M of SARS-CoV Urbani” value [3] was 0.8.
